For series [1], the system named is axenic amastigotes of L. donovani, strain MHOM-ET-67/L82. Briefly: In vitro activity against L. donovani axenic amastigotes, serial drug dilution assay. It counts as cell-based, Leishmania donovani. The settings on record: Leishmania donovani, axenic amastigotes, strain MHOM-ET-67/L82; means of two independent assays; read-out: IC50 L. don. axen. The procedure: (§1) Drug stock solutions (10mg/ml) were in DMSO (100%). […] Selectivity index (SI) was calculated as IC50 L6 cells/IC50 parasite.

For series [2], the system named is T. cruzi, strain Tulahuen C4, intracellular amastigotes. The experiment in a line: microbe, parasite or virus in culture. The note with it: Trypanosoma cruzi, TULAHUEN, read-out: IC50 T. cruzi. The procedure:
as §1

The next series is described as follows: in vitro. The note with it: rat. The procedure: as §1
Series [3] deals with intracellular amastigotes of L. donovani strain MHOM-ET-67/L82. The experiment in a line: Activity against Leishmania donovani intracellular amastigotes in mouse peritoneal macrophages. The note with it: Leishmania donovani, Peritoneal macrophage, in Mus musculus, 96 h, read-out: IC50 L. don. intracell. The procedure: After 24 h 1.2 x 10^5 amastigote L. donovani in 100 μl were added. The amastigotes were taken from an axenic culture grown at pH 5.4. Four hours later, the medium containing free amastigote forms was removed and replaced by fresh medium. The next day the medium was replaced by medium with or without a serial drug dilution of seven 3-fold dilution steps covering a range from 30 to 0.04 μg/ml. Parasite growth in the presence of the drug was compared to control wells. After 96 h of incubation, the medium was removed and the slides fixed with methanol for 10 min followed by staining with a 10% Giemsa solution. Infected and non-infected macrophages were counted for the control cultures and those exposed to the serial drug dilutions. The infection rates were determined. The results were expressed as a percentage reduction in parasite burden compared to control wells, and the IC50 was calculated by linear regression analysis. The collection of mouse peritoneal macrophages was done at the Swiss Tropical and Public Health Institute (Basel) according to the rules and regulations for the protection of animal rights ("Tierschutzverordnung") of the Swiss "Bundesamt für Veterinärwesen".

In series [4] the test system is T. b. rhodesiense strain STIB 900, trypomastigotes. Briefly: In vitro activity against T. b. rhodesiense, serial drug dilution assay. The note with it: for IC50: Trypanosoma brucei, read-out: IC50 T. b. rhod. The procedure: as §1
Series [5] is described as follows: Cytotoxicity on macrophages infected with L. donovani. The note with it: mouse. The format is cell-based, mouse.
The next series relates to P. falciparum strain K1. Briefly: In vitro activity against P. falciparum, serial drug dilution assay. The settings on record: for IC50: Plasmodium falciparum, K1, read-out: IC50 P. falc. K1; for Activity against P. falciparum (in words): in vitro. The procedure:
as §1

[6] abbreviates: macrophages infected with L. donovani, read-out: IC50 Cytotox. mac.inf.
Where [7] appears, read: L6 cells, IC50 Cytotox. L6, L6 cells, means of two independent assays.
Where [8] appears, read: mouse peritoneal macrophages infected with L. donovani, macrophages infected with L. donovani, read-out: IC50 Cytotox. mac.inf.
Setting [9] is: infected macrophages, read-out: Cytotox. mac.inf. IC50.

Where a name gives a salt, the structure may show the parent alone. Read-outs that look alike come from different tables or passages of the source. Bounds are passed on as bounds.

In general, IC50 refers to the midpoint of a concentration-inhibition curve. Consider `CCCSc1ccc2nc(NC(=O)OC)[nH]c2c1` [Albendazole], for which the IC50 in series [1] is over 113 µM; in series [2], 12.3 µM; in “in vitro”, 0.41 µM; in series [3], over 3.77 µM; in series [4] it was 14.7 µM.

In the case of `NC12CC3CC(CC(C3)C1)C2` [Amantadine], the half-maximal inhibitory concentration (IC50) in series [1] is over 595 µM; in series [2], 371 µM; in “in vitro” (IC50 Cytotox. L6) it was 215 µM; in series [3], over 198 µM; in the series on P. falciparum strain K1 it was 5.67 µM; in series [4], 52.8 µM. In addition, the IC50 at 96 h in series [5] (setting [6]) was over 198 µM.

For `CN(C)CCC=C1c2ccccc2CCc2ccccc21` [Amitriptyline], the IC50 in series [1] was 131 µM; in series [2], 35.1 µM; in the series “in vitro”, 42.2 µM; in series [3], over 10.8 µM; in the series with P. falciparum strain K1, 1.16 µM; in series [4], 3.03 µM. Besides, in series [5] (setting [6]), the IC50 at 96 h came to 36.1 µM. For the same molecule, in the series on P. falciparum strain K1, the “Activity against P. falciparum (in words)” value is reported as “micromolar range”. In addition, in series [4] (rat, Selectivity index: IC50 Cytotoxicity L6/ IC50 T. b. rhodesiense), the selectivity ratio is 14.

The molecule `Clc1ccc2c(c1)C(N1CCNCC1)=Nc1ccccc1O2` [Amoxapine] yielded an IC50 in “in vitro” (IC50 Cytotox. L6) of 16.2 µM. The IC50 at 96 h in series [5] (setting [6]) turned out to be 31.9 µM.

On to `CC(C)CN(C[C@@H](O)[C@H](Cc1ccccc1)NC(=O)O[C@H]1CCOC1)S(=O)(=O)c1ccc(N)cc1` [Amprenavir], for which the IC50 in series [1] was 113 µM; in series [2], 105 µM; in the series “in vitro”, 160 µM; in series [3] it was over 59.3 µM; in the series on P. falciparum strain K1 it was 15.2 µM; in series [4], 28.5 µM. For the same molecule, in series [5] (setting [6]), the IC50 at 96 h was over 59.3 µM.

Regarding `COC(=O)N[C@H](C(=O)N[C@@H](Cc1ccccc1)[C@@H](O)CN(Cc1ccc(-c2ccccn2)cc1)NC(=O)[C@@H](NC(=O)OC)C(C)(C)C)C(C)(C)C` [Atazanavir (Sulfate), Atazanavir], the 50% inhibitory concentration (IC50) was 24.1 µM in series [1]; 33.3 µM in series [2]; 46.5 µM in the series “in vitro” (setting [7]); over 37.5 µM in series [3]; 7.95 µM in the series on P. falciparum strain K1; 12.7 µM in series [4]. Also, the IC50 at 96 h in series [5] (setting [8]) is over 37.5 µM.

Take `CC(Cc1cccc(C(F)(F)F)c1)NCCOC(=O)c1ccccc1` (centres unmarked) [Benfluorex]: the half-inhibitory concentration (IC50) in series [1] is 243 µM; in series [2], 73.7 µM; in the series “in vitro” (IC50 Cytotox. L6) it was 49.1 µM; in series [3] it was 54.4 µM; in the series with P. falciparum strain K1, 6.52 µM; in series [4], 21.1 µM. The IC50 at 96 h in series [5] (setting [6]) is over 85.4 µM.

Take `O=C(Cn1ccnc1[N+](=O)[O-])NCc1ccccc1` [Benznidazole]: the IC50 in series [2] worked out at 1.99 µM.

Take `c1ccc(-c2ccc(C(c3ccccc3)n3ccnc3)cc2)cc1` (centres unmarked) [Bifonazole]: the concentration for half-maximal inhibition (IC50) in series [1] is 5.48 µM; in series [2], 0.003 µM; in “in vitro” (IC50 Cytotox. L6), 39.3 µM; in series [3], over 32.2 µM; with P. falciparum strain K1, 3.18 µM; in series [4], 26.8 µM. Moreover, in series [5] (setting [6]), the IC50 at 96 h was over 32.2 µM.

For `O=C(O)COCCN1CCN(C(c2ccccc2)c2ccc(Cl)cc2)CC1` (centres unmarked) [Cetirizine (Hydrochloride), Cetirizine], the IC50 in series [1] is 186 µM; in series [2] it was 120 µM; in “in vitro” (IC50 Cytotox. L6) it was 149 µM; in series [3] it was over 70.5 µM; in the series with P. falciparum strain K1, 20 µM; in series [4], 99.5 µM. In addition, the IC50 at 96 h in series [5] (setting [6]) was over 70.5 µM.

In turn, `CCN(CC)CCOc1ccc(C(=C(Cl)c2ccccc2)c2ccccc2)cc1` [Clomiphene] yielded an IC50 in the series “in vitro” (Cytotox. L6 IC50) of 13.1 µM. The MCC at 96 h in series [5] (setting [9]) turned out to be 24.6 µM.

`CN(C)CCCN1c2ccccc2CCc2ccc(Cl)cc21` [Clomipramine]: inhibition in the series “in vitro” (IC50 Cytotox. L6) was half-maximal at 19.8 µM (IC50). Besides, the IC50 at 96 h in series [5] (setting [6]) is 31.8 µM.

As for `CC(C)CN(C[C@@H](O)[C@H](Cc1ccccc1)NC(=O)O[C@H]1CO[C@H]2OCC[C@H]21)S(=O)(=O)c1ccc(N)cc1` [Darunavir], the IC50 in series [1] was 125 µM; in series [2], 92.2 µM; in series [3] it was over 54.8 µM; with P. falciparum strain K1, 46.9 µM; in series [4], 31.4 µM.

The molecule `CNCCC(Oc1ccc(C(F)(F)F)cc1)c1ccccc1` (centres unmarked) [Fluoxetine] returned an IC50 in “in vitro” (IC50 Cytotox. L6) of 15 µM. The MCC at 96 h in series [5] (setting [6]) turned out to be 32.3 µM. Also, in the series on P. falciparum strain K1, the “Activity against P. falciparum (in words)” value is on record as “micromolar range”.

Take `OCCN1CCN(CCCN2c3ccccc3Sc3ccc(C(F)(F)F)cc32)CC1` [Fluphenazine]: it took 11.5 µM to reach half-maximal inhibition in “in vitro” (IC50 Cytotox. L6) (IC50). The IC50 at 96 h in series [5] (setting [6]) worked out at 22.9 µM. For the same molecule, the “Activity against P. falciparum (in words)” value in the series with P. falciparum strain K1 was “micromolar range”.

As to `CCC(C)n1ncn(-c2ccc(N3CCN(c4ccc(OCC5COC(Cn6cncn6)(c6ccc(Cl)cc6Cl)O5)cc4)CC3)cc2)c1=O` (centres unmarked) [Itraconazole], the IC50 was 2.42 µM in series [1]; 0.004 µM in series [2]; 1.11 µM in the series “in vitro” (IC50 Cytotox. L6); over 1.42 µM in series [3]; 1.37 µM in the series with P. falciparum strain K1; 8.53 µM in series [4].

As for `CC(=O)N1CCN(c2ccc(OCC3COC(Cn4ccnc4)(c4ccc(Cl)cc4Cl)O3)cc2)CC1` (centres unmarked) [Ketoconazole], the IC50 is 38.8 µM in series [1]; 0.27 µM in series [2]; 51 µM in “in vitro”; over 18.8 µM in series [3]; 33.1 µM in series [4].

As for `Nc1nc(N)nc(Nc2ccc([As]3SCC(CO)S3)cc2)n1` (centres unmarked) [Melarsoprol], the IC50 in series [4] amounted to 0.01 µM.

Consider `CCCCCCCCCCCCCCCCOP(=O)([O-])OCC[N+](C)(C)C` [Miltefosine], for which the IC50 in series [3] was found to be 1.21 µM.

Consider `Cc1ncc([N+](=O)[O-])n1CC(O)CCl` (centres unmarked) [Ornidazole], for which the half-inhibitory concentration (IC50) in series [1] was over 136 µM; in series [2] it was 130 µM; in “in vitro” (IC50 Cytotox. L6) it was over 408 µM; in series [3], over 136 µM; in series [4], 25.9 µM. Also, the half-inhibitory concentration (IC50) at 96 h in series [5] (setting [6]) was over 136 µM.

As to `CC(C)c1nc(CN(C)C(=O)N[C@H](C(=O)N[C@@H](Cc2ccccc2)C[C@H](O)[C@H](Cc2ccccc2)NC(=O)OCc2cncs2)C(C)C)cs1` [Ritonavir], the IC50 in series [1] was 8.97 µM; in series [2], 20.7 µM; in series [3], over 41.6 µM; in the series on P. falciparum strain K1 it was 16.2 µM; in series [4] it was 4.3 µM.

Take `Cn1c([N+](=O)[O-])cnc1N1CCN(S(C)(=O)=O)C1=O` [Satranidazole]: the IC50 was 10.4 µM in series [1]; 19.1 µM in series [2]; over 311 µM in the series “in vitro” (setting [7]); over 104 µM in series [3]; 18.7 µM in series [4]. Besides, in series [5] (setting [8]), the concentration for half-maximal inhibition (IC50) at 96 h is over 104 µM.

With `Cc1ncc([N+](=O)[O-])n1CC(C)O` (centres unmarked) [Secnidazole], the IC50 is over 161 µM in series [1]; over 161 µM in series [2]; over 483 µM in “in vitro” (IC50 Cytotox. L6); over 161 µM in series [3]; 28.7 µM in series [4]. Moreover, the IC50 at 96 h in series [5] (setting [6]) was over 161 µM.

In turn, `CSc1ccc2c(c1)N(CCC1CCCCN1C)c1ccccc1S2` (centres unmarked) [Thioridazine] registered an IC50 in “in vitro” (IC50 Cytotox. L6) of 5.39 µM. For the same molecule, the MCC at 96 h in series [5] (setting [9]) amounted to 25.8 µM.

`CCS(=O)(=O)CCn1c([N+](=O)[O-])cnc1C` [Tinidazole]: the IC50 in series [1] was over 81 µM; in series [2], over 81 µM; in the series “in vitro” (IC50 Cytotox. L6) it was over 243 µM; in series [3], over 81 µM; in series [4], 16.6 µM. Also, the IC50 at 96 h in series [5] (setting [6]) is over 81 µM. Also, in series [4] (in vitro), the “Activity against T. b. rhodesiense (in words)” value was “inactive”.

(Values after article PMC4535766, “Antiprotozoal Activity Profiling of Approved Drugs: A Starting Point toward Drug Repositioning” (PLoS ONE, 2015).)
